For the test, the target named is T1, human cannabinoid CB2 receptor (Homo sapiens, UniProt P34972).
T1 construct: expressed in transfected cells; host or cells: Saccharomyces cerevisiae strain MMY23
In words: Cannabinoid CB2 receptor agonist activity, yeast reporter assay (FDGlu fluorescence).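 On Emax: 100% equals maximal response of reference agonist HU210.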 Format: cell-based. The following applies: for Emax: read-out: efficacy value (Emax) at the cloned human cannabinoid CB2 receptor. (Reporter assays use an easily measured gene product as a stand-in for the process of interest.)

T1 sequence (P34972 whole entry): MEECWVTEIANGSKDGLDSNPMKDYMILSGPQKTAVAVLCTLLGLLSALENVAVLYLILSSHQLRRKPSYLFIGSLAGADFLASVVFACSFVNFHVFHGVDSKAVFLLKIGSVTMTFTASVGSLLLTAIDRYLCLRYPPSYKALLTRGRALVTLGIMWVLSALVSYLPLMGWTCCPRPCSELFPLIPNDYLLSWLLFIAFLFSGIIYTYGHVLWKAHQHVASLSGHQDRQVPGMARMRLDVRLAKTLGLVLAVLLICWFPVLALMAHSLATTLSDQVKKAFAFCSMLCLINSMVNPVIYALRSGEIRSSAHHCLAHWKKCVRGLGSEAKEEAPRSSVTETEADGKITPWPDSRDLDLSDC

For the molecule `O=C(NCC1CCC1)c1cnc(Nc2ccc(F)cc2)cc1C(F)(F)F` [Example 134, N-Cyclobutylmethyl-6-(4-fluoro-phenylamino)-4-trifluoromethyl-nicotinamide], the EC50 (in general, the concentration that produces a half-maximal response) was under 300 nM and the Emax – broadly, the maximal effect, on the per cent scale that the assay sets – was over 50%. In the case of `O=C(NCC1CCOCC1)c1cnc(Nc2cc(Cl)ccc2O)cc1C(F)(F)F` [Example 170, N-(Tetrahydropyran-4-yl-methyl)-6-(2-hydroxy-5-chloro-phenylamino)-4-trifluoromethyl-nicotinamide], the EC50 is under 300 nM and the Emax is over 50%. In the same order, the values of `O=C(NCC1CCC1)c1cnc(Nc2ccccc2)cc1C(F)(F)F` [Example 109, N-Cyclobutylmethyl-6-phenylamino-4-trifluoro-methyl-nicotinamide] are under 300 nM and over 50%. With `CC(C)c1cc(Nc2ccc(Cl)cc2Br)ncc1C(=O)NCC1CCCC1` [Example 89, 6-(2-Bromo-4-chloro-phenylamino)-N-cyclopentylmethyl-4-isopropyl-nicotinamide], the EC50 was under 300 nM and the Emax is over 50%. In the same order, the values of `Cc1cc(C#N)ccc1Nc1cc(C(C)C)c(C(=O)NCC2CCCC2)cn1` [Example 93, 6-(4-Cyano-2-methyl-phenylamino)-N-cyclopentylmethyl-4-isopropyl-nicotinamide] are under 300 nM and over 50%.

Take `O=C(NCC1CCCCCC1)c1cnc(Nc2cccc(Cl)c2Cl)cc1C(F)(F)F` [Example 137, N-Cycloheptylmethyl-6-(2,3-dichloro-phenylamino)-4-tri-fluoromethyl-nicotinamide]: the EC50 is under 300 nM and the Emax is over 50%.

In the case of `O=C(NCC1CC1)c1cnc(Nc2cccc(Cl)c2)cc1C(F)(F)F` [Example 115, N-Cyclopropylmethyl-6-(3-chlorophenylamino)-4-tri-fluoromethyl-nicotinamide], the EC50 was under 300 nM and the maximal response (Emax) was over 50%. The like results for `Cc1cc(Cl)ccc1Nc1cc(C(C)C)c(C(=O)NCC2CCOCC2)cn1` [Example 244, 6-(4-Chloro-2-methyl-phenylamino)-4-isopropyl-N-(tetrahydro-pyran-4-ylmethyl)-nicotinamide] were, in that order, under 300 nM and over 50%. For `CC(C)c1cc(Nc2ccc(Cl)cc2Cl)ncc1C(=O)NCC1CCS(=O)(=O)C1` (stereo not drawn) [Example 278, 6-(2,4-Dichloro-phenylamino)-N-(1,1-dioxo-tetrahydro-1/^6-thiophen-3-ylmethyl)-4-isopropyl-nicotinamide], the EC50 was under 300 nM and the Emax is over 50%. On to `CC(C)CNC(=O)c1cnc(Nc2cccc(Cl)c2)cc1C(C)C` [Example 268, 6-(3-Chloro-phenylamino)-N-isobutyl-4-isopropyl-nicotinamide], for which the maximal response (Emax) was over 50%.

Turning to `O=C(NCC1CCOCC1)c1cnc(Nc2ccc(Cl)cc2Cl)cc1C(F)(F)F` [Example 105, 6-(2,4-Dichloro-phenylamino)-N-(tetrahydropyran-4-ylmethyl)-4-trifluoromethyl-nicotinamide], the Emax is over 50%. On to `O=C(NCC1CCC1)c1cnc(Nc2cccc(F)c2)cc1C(F)(F)F` [Example 129, N-Cyclobutylmethyl-6-(3-fluoro-phenylamino)-4-tri-fluoromethyl-nicotinamide], for which the concentration for a half-maximal effect (EC50) is under 300 nM and the Emax was over 50%.

Consider `CC(C)c1cc(Nc2cccc(Cl)c2)ncc1C(=O)NCC1CCCC1` [Example 21, 6-[(3-Chloro-phenyl)amino]-N-(cyclopentylmethyl)-4-isopropyl-nicotinamide], for which the Emax was over 50%.

Regarding `CC(C)c1cc(Nc2ccc(C#N)cc2Cl)ncc1C(=O)NCC1CCC1` [Example 259, 6-(2-Chloro-4-cyano-phenylamino)-N-cyclobutylmethyl-4-isopropyl-nicotinamide], the half-maximal effective concentration (EC50) was under 300 nM and the Emax is over 50%. For the molecule `CC(C)c1cc(Nc2cccc(Cl)c2)ncc1C(=O)NCC1CCC1` [Example 6, 6-(3-Chloro-phenylamino)-N-cyclobutylmethyl-4-isopropyl-nicotinamide], the EC50 was under 300 nM and the Emax is over 50%. The like results for `CC(C)(C)c1cc(Nc2cccc(Cl)c2)ncc1C(=O)NCC1CCCCC1` [Example 69, 4-tert-Butyl-6-(3-chloro-phenylamino)-N-cyclohexylmethyl-nicotinamide] were, in that order, under 300 nM and over 50%. Regarding `O=C(NCC1CCCC1)c1cnc(Nc2ccc(F)cc2F)cc1C(F)(F)F` [Example 167, N-Cyclopentylmethyl-6-(2,4-difluoro-phenylamino)-4-tri-fluoromethyl-nicotinamide], the EC50 is under 300 nM and the Emax was over 50%. On to `O=C(NC1CCC1)c1cnc(Nc2cccc(Br)c2)cc1C(F)(F)F` [Example 119, N-Cyclobutyl-6-(3-bromo-phenylamino)-4-trifluoro-methyl-nicotinamide], for which the concentration for a half-maximal effect (EC50) was under 300 nM and the Emax was over 50%. For `Cc1cccc(Nc2cc(C(C)C)c(C(=O)NCC3CCCC3)cn2)c1` [Example 24, N-Cyclopentylmethyl-4-isopropyl-6-m-tolylamino-nicotinamide], the EC50 is under 300 nM and the Emax was over 50%. As to `Cc1cc(Cl)ccc1Nc1cc(C(F)(F)F)c(C(=O)NCC2CCCCC2)cn1` [Example 171, N-Cyclohexylmethyl-6-(2-methyl-4-chloro-phenyl-amino)-4-trifluoromethyl-nicotinamide], the EC50 is under 300 nM and the Emax was over 50%. In the same order, the values of `O=C(NCC1CCCCC1)c1cnc(Nc2ccc(Cl)cc2Cl)cc1C(F)(F)F` [Example 138, N-Cyclohexylmethyl-6-(2,4-dichloro-phenylamino)-4-tri-fluoromethyl-nicotinamide] are under 300 nM and over 50%. In the same order, the values of `CC(C)c1nc(Nc2cccc(Cl)c2)ccc1C(=O)NCC1CCCC1` [Example 210, 6-(3-Chloro-phenylamino)-N-cyclopentylmethyl-2-isopropyl-nicotinamide] are under 300 nM and over 50%.

Consider `CC(C)c1cc(Nc2cccc(OC(F)(F)F)c2)ncc1C(=O)NCC1CCCCC1` [Example 15, N-Cyclohexylmethyl-4-isopropyl-6-(3-trifluoromethoxy-phenylamino)-nicotinamide], for which the 50% effective concentration (EC50) is under 300 nM and the maximum response (Emax) was over 50%. In the same order, the values of `O=C(NCC1CCC1)c1cnc(Nc2ccc(Cl)c(Cl)c2)cc1C(F)(F)F` [Example 157, N-Cyclobutylmethyl-6-(3,4-dichloro-phenylamino)-4-tri-fluoromethyl-nicotinamide] are under 300 nM and over 50%. For `CC(C)c1cc(Nc2cccc(Cl)c2)ncc1C(=O)NCC1CC1` [Example 51, 6-(3-Chloro-phenylamino)-N-cyclopropylmethyl-4-isopropyl-nicotinamide], the EC50 was under 300 nM and the Emax was over 50%. Turning to `CC(C)c1cc(Nc2cc(C(F)(F)F)ccc2F)ncc1C(=O)NCC1CCOCC1` [Example 236, 6-(2-Fluoro-5-trifluoromethyl-phenylamino)-4-isopropyl-N-(tetrahydro-pyran-4-ylmethyl)-nicotinamide], the EC50 is under 300 nM and the Emax was over 50%. With `CC(C)c1cc(Nc2ccc(Cl)cc2Br)ncc1C(=O)NCC1CCC1` [Example 256, 6-(2-Bromo-4-chloro-phenylamino)-N-cyclobutylmethyl-4-isopropyl-nicotinamide], the concentration giving a half-maximal response (EC50) was under 300 nM and the Emax was over 50%. The like results for `CC(C)c1cc(Nc2cccc(Cl)c2)ncc1C(=O)N1CCOCC1` [Example 11, 1-[6-(3-Chloro-phenylamino)-4-isopropyl-pyridin-3-yl]-1-morpholin-4-yl-methanone] were, in that order, under 300 nM and over 50%.

Consider `O=C(NCC1CCC1)c1cnc(Nc2cccc(Br)c2)cc1C(F)(F)F` [Example 120, N-Cyclobutylmethyl-6-(3-bromo-phenylamino)-4-tri-fluoromethyl-nicotinamide], for which the concentration for a half-maximal effect (EC50) was under 300 nM and the maximal response (Emax) was over 50%. For the molecule `CC(C)c1cc(Nc2ccc(C#N)cc2F)ncc1C(=O)NCC1CCCC1` [Example 293, 6-(4-Cyano-2-fluoro-phenylamino)-N-cyclopentylmethyl-4-isopropyl-nicotinamide], the half-maximal effective concentration (EC50) is under 300 nM and the maximal effect (Emax) was over 50%. In the same order, the values of `CC(C)CNC(=O)c1cnc(Nc2ccc(Cl)c(Cl)c2)cc1C(F)(F)F` [Example 153, N-Isobutyl-6-(3,4-dichloro-phenylamino)-4-trifluoro-methyl-nicotinamide] are under 300 nM and over 50%. In the same order, the values of `CC(C)(C)c1cc(Nc2ccc(Cl)cc2Cl)ncc1C(=O)NCC1CCCCC1` [Example 70, 4-tert-Butyl-6-(2,4-dichloro-phenylamino)-N-cyclohexylmethyl-nicotinamide] are under 300 nM and over 50%. In the same order, the values of `O=C(NCC1CCOCC1)c1cnc(Nc2ccc(Cl)c(Cl)c2)cc1C(F)(F)F` [Example 155, N-(Tetrahydropyran-4-yl-methyl)-6-(3,4-dichloro-phenylamino)-4-trifluoro-methyl-nicotinamide] are under 300 nM and over 50%. As for `CC(C)c1cc(Nc2ccc(Cl)cc2F)ncc1C(=O)NCC1CCCC1` [Example 91, 6-(4-Chloro-2-fluoro-phenylamino)-N-cyclopentylmethyl-4-isopropyl-nicotinamide], the EC50 was under 300 nM and the maximal effect (Emax) is over 50%.

Consider `CC(C)c1cc(Nc2ccc(Br)c(F)c2)ncc1C(=O)NCC1CCOCC1` [Example 297, 6-(4-Bromo-3-fluoro-phenylamino)-4-isopropyl-N-(tetrahydropyran-4-ylmethyl)-nicotinamide], for which the concentration for a half-maximal effect (EC50) is under 300 nM and the maximum response (Emax) was over 50%. The like results for `O=C(NCC1CCCCC1)c1cnc(Nc2ccc(Cl)c(Cl)c2)cc1C(F)(F)F` [Example 159, N-Cyclohexylmethyl-6-(3,4-dichloro-phenylamino)-4-tri-fluoromethyl-nicotinamide] were, in that order, under 300 nM and over 50%.

(Values after US20060240048A1 (priority 2002, published 2006).)
